3 molecules from patent EP1165069B1, “ANTITUMOUR SYNERGISTIC COMPOSITION” (Pharmacia Italia S.p.A., priority 1999, dated 2000) can be followed below.

Structures are written as SMILES.

For the series, the system named is disseminated L1210 murine leukemia. Nature of the series: Antileukemic activity against disseminated L1210 murine leukemia (in vivo, iv treatment). Particulars: for LTS (Long Term Survivors (>60 days) at the end the experiment) / Tox (Number of toxic deaths/number of mice) / ILS% (Increase in life span): combination at the same doses and schedule; for ILS% (Increase in life span): L1210 cells 10^5/mouse iv on day 0. On the set-up: species or system mouse. The text has this: Combining doxorubicin and Ia at the same doses with the same schedule an increase of activity with ILS% values of 150 was observed, indicating a synergistic effect.
For these experiments Ia was solubilized in [Cremophor® /EtOH= 6.5:3.5]/[normal saline]=20/80 v/v, while standard etoposide pharmaceutical preparation and doxorubicin solubilized in water were used.

Where [1] appears, read: Table 1 experiment: Ia 1 mg/kg/day iv days +1,2, Etoposide 30 mg/kg/day iv day +3.
Where [2] appears, read: etoposide alone 30 mg/kg day +3, Ia alone 1 mg/kg days +1,2.
The mark [3] stands for this setting: Table 2 experiment: Ia 1.5 mg/kg/day iv days +1,2, Doxorubicin 13 mg/kg/day iv day +3.
[4] abbreviates: doxorubicin alone 13 mg/kg day +3, Ia alone 1.5 mg/kg days +1,2.

Take `COc1cc([C@@H]2c3cc4c(cc3[C@@H](O[C@@H]3O[C@@H]5CO[C@@H](C)O[C@H]5[C@H](O)[C@H]3O)[C@H]3COC(=O)[C@H]23)OCO4)cc(OC)c1O` [Etoposide, etoposide]: under setting [1], the “LTS (Long Term Survivors (>60 days) at the end the experiment)” value (“LTS” below) was 0/10, the “Tox (Number of toxic deaths/number of mice)” value is recorded as 0/10 and the “ILS% (Increase in life span)” value was found to be 100%. Also, under setting [2], the “toxicity (in words)” value is “without toxicity”.
Turning to `COc1cccc2c1C(=O)c1c(O)c3c(c(O)c1C2=O)C[C@@](O)(C(=O)CO)C[C@@H]3O[C@H]1C[C@H](N)[C@H](O)[C@H](C)O1` [Doxorubicin, doxorubicin], under setting [3], the “LTS” value is reported as 0/10, the “Tox (Number of toxic deaths/number of mice)” value is recorded as 0/10 and the “ILS% (Increase in life span)” value is 50%. Under setting [4], the “toxicity (in words)” value is given as “without toxicity”.
With `CC(=O)[C@]1(O)Cc2c(O)c3c(c(O)c2[C@@H](O[C@H]2C[C@H](N4CC4)[C@H](OS(C)(=O)=O)[C@H](C)O2)C1)C(=O)c1ccccc1C3=O` [Ia, 4-demethoxy-3'-deamino-3'-aziridinyl-4'-methansulfonyl daunorubicin], the “LTS” value reads like this: under setting [1], 0/10; under setting [3], 0/10. For the same molecule, the “Tox (Number of toxic deaths/number of mice)” value by setting is: under setting [1], 0/10; under setting [3], 0/10. Besides, the “ILS% (Increase in life span)” value by setting is: under setting [1], 67%; under setting [3], 67%. In addition, the “toxicity (in words)” value by setting is: under setting [4], “without toxicity”; under setting [2], “without toxicity”.
